The test system of test [1] is Staphylococcus aureus ATCC 29213. As to the kind of experiment: AST QC assay on AD-1 instrument, QC isolate S. aureus ATCC 29213. The conditions noted are these: for Result (MIC value): unit assumed; for Result (phenotypic positive/negative test): resistance phenotype. Type of test: cell-based. From the text: (§1) The reportable range for the AST QC assay in some examples are adjusted such that the selected QC isolates have an MIC that is within the reportable range of the QC Assay. These extended ranges are only applied to QC testing and are not applied to AST assessment of patient samples. The process for assigning an MIC value to the QC organisms is the same or similar to that used for patient samples. […] This approach allows testing of, for example, CLSI recommended QC isolates without affecting the algorithms that are optimized around antimicrobial breakpoints. The algorithms used in ID QC or AST QC testing include those described above, for example, when the QC test samples are microbial isolates. For ID QC testing utilizing target microbial nucleic acids coupled to a bead, positive detection is achieved by comparing the cumulative count in the target (e.g., Green fluorescence channel) only against a threshold of objects that have brightness exceeding bead autofluorescence. Negative control detection is achieved by doing the same for eubacteria (e.g., Red fluorescence) channel only. For example, the number of bright red objects should not exceed a threshold in order to pass negative control.
In addition, the CLSI required QC isolates for the relevant antimicrobial resistance phenotype assays (MRSA/MSA, and MLSb) may also be tested. When following CLSI recommendations, routine testing of a designated susceptible isolate as well as testing of designated resistant isolates for each new lot and/or new shipment of reagent kits should be performed. These isolates, therefore, may be included in the QC Assay. For example, Cefoxitin may be tested with Staphylococcus aureus ATCC 29213 as the susceptible isolate and Staphylococcus aureus ATCC 43300 may be tested as the resistant isolate.
(§2) The results of the identification assay drive antibiotic selection for antimicrobial susceptibility testing. The remaining samples undergo a pre-growth step to normalize growth rates during the approximately 1-hour FISH ID assay. The concentration of organisms in the purified inoculum was determined by repeating the quantitation process with a universal nucleic acid stain as previously described herein. […] Following cell immobilization, antimicrobial solutions in Mueller-Hinton agar were dispensed into the flowcells. Different antimicrobials were tested in separate flowcells, and only a single concentration of each antimicrobial was used. A growth control consisting of Mueller-Hinton agar without any antimicrobial was included for each run. A dark-field microscope and camera produced time-lapse images approximately every 10 minutes of progenitor cells growing into clones of daughter cells in each flowcell. The agar ensured daughter cells were immobilized and remained localized to each growing clone. Resistant clones grew while susceptible clones arrest or lyse over time (FIG. 90).
Custom image analysis software assigned unique spatial XY coordinates to individual progenitor cells (FIG. 91), allowing each growing clone across a series of time-lapse images to be identified. The intensity of each clone can be used as a metric of clone mass in each image. By measuring over time, this metric was used to generate growth curves for each individual clone (FIG. 92). The pattern of cell responses was used to determine the susceptibility of the overall population. […]

The subject of test [2] is Escherichia coli ATCC 25922. The experiment in a line: AST QC assay on AD-1 instrument, QC isolate E. coli ATCC 25922. Type of test: cell-based. The conditions noted are these: unit assumed.
Description: as §1, §2
Custom image analysis software assigned unique spatial XY coordinates to individual progenitor cells (FIG. 91), allowing each growing clone across a series of time-lapse images to be identified. The intensity of each clone can be used as a metric of clone mass in each image. By measuring over time, this metric was used to generate growth curves for each individual clone (FIG. 92). The pattern of cell responses was used to determine the susceptibility of the overall population. Computer algorithms developed for each organism-antimicrobial combination convert microbial growth response into an MIC value using a mathematical regression model based on the response of isolates with known MICs for a single-concentration of a given antimicrobial. Once obtained, MIC values were interpreted using FDA, CLSI or EUCAST breakpoints along with expert rules to determine the categorical result (susceptible (S), intermediate (I) or resistant (R)). In addition to MICs, this technique was applied to phenotypic resistance mechanism detection.
In this example, the AST QC consumable insert consisted of 8 wells configured in a “pi” shape, as shown in the dark gray shading in FIG. 109. The AST QC panel was composed of seven CLSI recommended isolates that provide “on-scale” MIC results for all of the antimicrobial agents included in a sample blood culture test. A C. albicans isolate was used for Quality Control assessment of the […] component of the AD-1 Instrument System.
Table 9 below lists each organism and the corresponding antimicrobial agent that was tested in the AST QC assay. […]

Test [3] relates to Escherichia coli ATCC 25922. The note with it: in µg/mL (unit assumed), cited from earlier work; for Expected (MIC acceptance range): E. coli ATCC 25922.
Test [4] concerns Staphylococcus aureus ATCC 43300. The experiment in a line: AST QC assay on AD-1 instrument, QC isolate S. aureus ATCC 43300. In kind it is cell-based. The note with it: resistance phenotype.
Description: as §1, with “For example, the number of bright red objects should not exceed a threshold in order to pass negative control.” left out
The results of the identification assay drive antibiotic selection for antimicrobial susceptibility testing. […] The concentration of organisms in the purified inoculum was determined by repeating the quantitation process with a universal nucleic acid stain as previously described herein. […]

The test system of test [5] is methicillin-susceptible S. aureus (MSSA). As to the kind of experiment: Time-lapse imaging of isolates growing in cefoxitin (MSSA). In kind it is cell-based. The conditions noted are these: by 4.5 hours (FIG. 90). As to the method: as §2
The test system of test [6] is methicillin-resistant S. aureus (MRSA). As to the kind of experiment: Time-lapse imaging of isolates growing in cefoxitin (MRSA). Type of test: cell-based. The note with it: by 4.5 hours (FIG. 90). As to the method: as §2
Test [7] relates to Staphylococcus aureus ATCC 29213. The note with it: cited from earlier work.
For test [8], the system named is Staphylococcus aureus ATCC 43300. The note with it: S. aureus ATCC 43300, cited from earlier work.
For test [9], the system named is Escherichia coli ATCC 35218. As to the kind of experiment: AST QC assay on AD-1 instrument, QC isolate E. coli ATCC 35218. The conditions noted are these: unit assumed. Type of test: cell-based.
Description: as §1
as §2, with “A dark-field microscope and camera produced time-lapse images approximately every 10 minutes of progenitor cells growing into clones of daughter cells in each flowcell. The agar ensured daughter cells were immobilized and remained localized to each growing clone. Resistant clones grew while susceptible clones arrest or lyse over time (FIG. 90).” left out

For a further test, the system named is Pseudomonas strains. As to the kind of experiment: Growth of Pseudomonas strains in nutrient-depleted vs standard Mueller-Hinton media with antibiotic, automated microscopy. In kind it is cell-based. Here is the method:
A series of growth media was formulated with […] strength of standard Mueller-Hinton nutrients (3 g beef infusion 17.5 g casein hydrolysate, 1.5 g starch, the final product being pH adjusted to neutral at 25° C.) while maintaining the agar concentration at 0.94% in the culture media. The effect of this depleted-nutrient media formulation on bacterial cell growth was evaluated with more than 50 strains of Pseudomonas in the presence of a panel of beta-lactam antibiotics. Cells were imaged using automated microscopy as described above. […] FIGS. 85A-C plots the log of bacterial dark phase intensity versus time, which is proportional to measuring cell mass in culture. FIGS. 85D-F are a quantitative representation of the data presented in panels FIGS. 85A-C expressed as rate of bacterial cell division.

Read-outs that look alike come from different tables or passages of the source.

The source of these data is patent publication US10253355B2, “Instrument and system for rapid microorganism identification and antimicrobial agent susceptibility testing” (Accelerate Diagnostics, Inc., priority 2015, dated 2019).

For Trimethoprim-Sulfamethoxazole, the Result (MIC value) in test [1] (AST only report (Table 10)) is 0.25 µg/mL; in [1] (ID and AST report (Table 11)), 0.25 µg/mL.

For `CC(C)(O/N=C(\C(=O)N[C@@H]1C(=O)N2C(C(=O)[O-])=C(C[n+]3ccccc3)CS[C@H]12)c1csc(N)n1)C(=O)O` [Ceftazidime], the Result (MIC value) turned out to be 0.25 µg/mL in [2] (AST only report (Table 10)); 0.25 µg/mL in test [2] (ID and AST report (Table 11)). In addition, the “Organism QC Range (MIC)” value in test [3] (AST QC panel (Table 9), CLSI recommended isolate E. coli ATCC 25922) was 1-4. The “Expected (MIC acceptance range)” value was 0.06-0.5 in test [3] (AST only report (Table 10)); 0.06-0.5 in [3] (ID and AST report (Table 11)).

With `CO[C@@]1(NC(=O)Cc2cccs2)C(=O)N2C(C(=O)O)=C(COC(N)=O)CS[C@@H]21` [Cefoxitin], the “Result (phenotypic positive/negative test)” value in test [1] (AST only report (Table 10)) is reported as “NEG”; in [1] (ID and AST report (Table 11)) it was “NEG”; in test [4] (AST only report (Table 10)), “POS”; in test [4] (ID and AST report (Table 11)), “POS”. Besides, the entries for the “Clone growth in time-lapse images” value in test [5] and in test [6] were “arrested or lysed” and “continue to grow”, respectively. The “Organism QC Range (Positive/Negative phenotype)” value in test [7] (AST QC panel (Table 9), S. aureus ATCC 29213) is recorded as “Negative”; in test [8] (AST QC panel (Table 9)), “Positive”. Further, the “Expected (phenotypic positive/negative test)” value in test [7] (AST only report (Table 10), S. aureus ATCC 29213) is reported as “NEG”; in test [7] (ID and AST report (Table 11), S. aureus ATCC 29213), “NEG”; in test [8] (AST only report (Table 10)) it was “POS”; in [8] (ID and AST report (Table 11)), “POS”.

With Piperacillin-Tazobactam, the Result (MIC value) in [9] (AST only report (Table 10)) is 1 µg/mL; in [9] (ID and AST report (Table 11)) it was 1 µg/mL. Moreover, the “Susceptibility of the bacteria” value in the test with Pseudomonas strains (Pseudomonas isolate of FIGS. 85A-F) was “susceptible”. The “Bacterial growth / replication pattern in presence of antibiotic” value in the test on Pseudomonas strains (nutrient-depleted media (approx. 87% reduction in Mueller-Hinton nutrients), within 3.5 hours) was “substantially impaired growth”. Besides, the “Antibiotic effect on filamentous cells” value in the test with Pseudomonas strains (standard Mueller-Hinton media, 2 to 3.5 hours of exposure) was “no discernable antibiotic effect”.

Take `CC[C@H]1OC(=O)[C@H](C)[C@@H](O[C@H]2C[C@@](C)(OC)[C@@H](O)[C@H](C)O2)[C@H](C)[C@@H](O[C@@H]2O[C@H](C)C[C@H](N(C)C)[C@H]2O)[C@](C)(O)C[C@@H](C)C(=O)[C@H](C)[C@@H](O)[C@]1(C)O` [Erythromycin]: the Result (MIC value) in [1] (AST only report (Table 10)) was found to be 0.6 µg/mL. The “Organism QC Range (MIC)” value in [7] (AST QC panel (Table 9), CLSI recommended isolate S. aureus ATCC 29213, in µg/mL (unit assumed)) is given as 0.25-1. The “Expected (MIC acceptance range)” value in [7] (AST only report (Table 10), S. aureus ATCC 29213, in µg/mL (unit assumed)) is 0.25-1.

On to Ampicillin-Sulbactam, for which, in test [9] (AST only report (Table 10)), the Result (MIC value) was determined as 16 µg/mL.
